The values that follow come from ChEMBL document CHEMBL1125752, “Relationship between tissue selectivity and lipophilicity for inhibitors of HMG-CoA reductase” (J Med Chem, 1991).

The pIC50 is the IC50 on a negative log10 scale, so that one unit is a factor of ten.

pIC50: −log10 of the molar value.

The species entered for experiment [1] is Rattus norvegicus. The experiment is described as follows: Incorporation of [14C]- acetate into sterols measured in rat testis. The class given is functional, organism-based.
The species entered for experiment [2] is Rattus norvegicus. As to the kind of experiment: Incorporation of [14C]- acetate into sterols measured in rat spleen. The class given is functional, organism-based.
Experiment [3] in a line: IC50 ratio evaluated as the IC50 values of spleen to that of liver. The class given is functional. On the set-up: reference not given here.
For experiment [4], the target named is T1, 3-hydroxy-3-methylglutaryl-coenzyme A reductase (Rattus norvegicus, UniProt P51639).
T1 sequence (P51639 whole entry): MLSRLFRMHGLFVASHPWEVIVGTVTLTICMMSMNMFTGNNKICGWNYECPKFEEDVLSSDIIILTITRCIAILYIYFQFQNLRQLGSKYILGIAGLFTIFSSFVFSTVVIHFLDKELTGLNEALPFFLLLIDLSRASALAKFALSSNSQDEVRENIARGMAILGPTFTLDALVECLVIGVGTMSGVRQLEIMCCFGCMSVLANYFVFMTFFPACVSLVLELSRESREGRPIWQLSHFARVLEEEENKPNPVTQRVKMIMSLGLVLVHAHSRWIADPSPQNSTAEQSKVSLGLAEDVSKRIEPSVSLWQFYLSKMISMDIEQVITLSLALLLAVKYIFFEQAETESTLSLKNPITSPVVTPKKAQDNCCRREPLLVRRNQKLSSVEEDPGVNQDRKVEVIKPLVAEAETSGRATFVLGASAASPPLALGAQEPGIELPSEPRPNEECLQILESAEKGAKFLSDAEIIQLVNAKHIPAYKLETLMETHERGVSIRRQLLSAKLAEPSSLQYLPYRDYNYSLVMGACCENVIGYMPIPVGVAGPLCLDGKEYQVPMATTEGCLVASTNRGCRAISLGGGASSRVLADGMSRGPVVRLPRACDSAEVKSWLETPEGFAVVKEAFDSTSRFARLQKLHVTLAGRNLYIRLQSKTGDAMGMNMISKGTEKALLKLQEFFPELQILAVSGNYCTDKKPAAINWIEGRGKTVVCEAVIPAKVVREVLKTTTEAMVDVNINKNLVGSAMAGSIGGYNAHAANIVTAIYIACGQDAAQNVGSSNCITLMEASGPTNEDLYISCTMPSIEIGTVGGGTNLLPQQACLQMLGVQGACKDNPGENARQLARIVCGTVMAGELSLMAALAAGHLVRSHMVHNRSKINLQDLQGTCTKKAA
As to the kind of experiment: Ability to inhibit microsomal preparation of HMG-CoA reductase in rat liver.

Experiment [5] is described as follows: IC50 ratio evaluated as the IC50 values of testis to that of liver. The class given is functional. On the set-up: reference not given here.
The species entered for experiment [6] is Rattus norvegicus. The experiment is described as follows: Incorporation of [14C]- acetate into sterols measured in rat liver. The class given is functional, organism-based.
The species entered for experiment [7] is Rattus norvegicus. The experiment is described as follows: Compound was tested for its effect on the incorporation of [14C]- acetate into sterols measured rat spleen. The class given is functional, organism-based.
The species named for experiment [8] is Rattus norvegicus. The experiment is described as follows: Compound was tested for its effect on the incorporation of [14C]- acetate into sterols measured rat liver. The class given is functional, organism-based.
The species named for experiment [9] is Rattus norvegicus. The experiment is described as follows: Compound was tested for its effect on the incorporation of [14C]- acetate into sterols measured rat testis. The class given is functional, organism-based.

As to `Cn1nnnc1C(/C=C/[C@@H](O)C[C@@H](O)CC(=O)[O-])=C(c1ccc(F)cc1)c1ccc(F)cc1.[Na+]`, the negative logarithm of the IC50 (pIC50) in experiment [1] is 6.20; in experiment [2] it was 5.80; in experiment [4], 7.89; in [6], 6.97. Also, the IC50 ratio in [3] was found to be 14.6; in experiment [5], 5.9.
`CC(C)c1nn(-c2cnccn2)c(-c2ccc(F)cc2)c1/C=C/[C@@H](O)C[C@@H](O)CC(=O)[O-].[Na+]`: the pIC50 in [1] was 7.19; in experiment [2], 7.70; in experiment [4], 8.18; in experiment [6], 8.00. Moreover, the results for the IC50 ratio in [3] and in experiment [5] were 2 and 6.4, respectively.
As for `CC(C)c1nn(-c2ccccn2)c(-c2ccc(F)cc2)c1/C=C/[C@@H](O)C[C@@H](O)CC(=O)[O-].[Na+]`, the pIC50 in [1] is 7.09; in experiment [2], 7.54; in [4] it was 8.00; in experiment [6], 7.77. In addition, the IC50 ratio in experiment [3] is 1.7; in experiment [5], 4.8.
In the case of `CC(C)c1nn(-c2ccccc2)c(-c2ccc(F)cc2)c1/C=C/[C@@H](O)C[C@@H](O)CC(=O)[O-].[Na+]`, the negative logarithm of the IC50 (pIC50) is 8.10 in experiment [1], 7.92 in experiment [2], 8.14 in experiment [4] and 7.47 in experiment [6]. The results for the IC50 ratio in experiment [3] and in experiment [5] were 0.35 and 0.24, respectively.
As to `Cc1cc(-c2ccc(F)cc2)c(/C=C/[C@@H](O)C[C@@H](O)CC(=O)[O-])c(C(C)C)[n+]1[O-].[Na+]`, the pIC50 in [7] is 6.58; in experiment [8], 7.74; in experiment [4], 8.03; in experiment [9], 6.14. The IC50 ratio in [3] came to 14.8; in experiment [5], 39.9.
Consider `Cc1cc(-c2ccc(F)cc2)c(/C=C/[C@@H](O)C[C@@H](O)CC(=O)[O-])c(C(C)C)n1.[Na+]`, for which the pIC50 was 8.05 in experiment [7], 7.77 in experiment [1], 8.11 in experiment [4] and 7.15 in experiment [6]. Besides, the values for the IC50 ratio in [3] and in experiment [5] were 0.13 and 0.24, respectively.
Regarding `CC(C)c1nc2ccc(Cl)cc2c(-c2ccc(F)cc2)c1/C=C/[C@@H](O)C[C@@H](O)CC(=O)[O-].[Na+]`, the pIC50 in experiment [1] is 6.74; in [2] it was 7.04; in experiment [4], 6.32; in experiment [6] it was 5.20. The IC50 ratio in experiment [3] is recorded as 0.02; in experiment [5], 0.03.
As to `CC(C)c1nc(-c2ccccc2)cc(-c2ccc(F)cc2)c1/C=C/[C@@H](O)C[C@@H](O)CC(=O)[O-].[Na+]`, the pIC50 is 7.80 in [1], 7.11 in [2], 8.70 in [4] and 5.09 in [6]. For the same molecule, the IC50 ratio in experiment [3] came to 0.01; in experiment [5] it was 0.002.
In the case of `Cc1cc(C)c(OC[C@@H](O)C[C@@H](O)CC(=O)[O-])c(C2CCCCCC2)c1.[Na+]`, the pIC50 in [1] is 7.20; in experiment [2], 6.97; in experiment [4], 6.85; in [6], 5.29. Moreover, the IC50 ratio turned out to be 0.02 in experiment [3] and 0.01 in [5].
For the molecule `CC(C)c1c(Br)c(Br)c(-c2ccc(F)cc2)n1CC[C@@H](O)C[C@@H](O)CC(=O)[O-].[Na+]`, the pIC50 in experiment [1] is 7.62; in experiment [2] it was 6.85; in experiment [4], 7.59; in experiment [6] it was 5.56. Moreover, the IC50 ratio in experiment [3] is recorded as 0.05; in [5], 0.009.
As for `CC[C@H](C)C(=O)O[C@H]1C[C@H](C)C=C2C=C[C@H](C)[C@H](CC[C@@H]3C[C@@H](O)CC(=O)O3)[C@H]21`, the pIC50 in experiment [1] is 8.40; in experiment [2] it was 8.30; in experiment [4] it was 7.89; in experiment [6], 7.55. Further, the figures for the IC50 ratio in experiment [3] and in experiment [5] were 0.17 and 0.14, respectively.
With `Cc1ccc(-c2ccc(C(C)C)c(OC[C@@H](O)C[C@@H](O)CC(=O)[O-])c2-c2ccc(F)cc2)cc1.[Na+]`, the pIC50 is 6.29 in experiment [1], 6.43 in [2], 7.00 in [4] and 5.22 in experiment [6]. In addition, the IC50 ratio in experiment [3] is recorded as 0.06; in experiment [5], 0.08.
Consider `CC(C)n1c(/C=C/C(O)CC(O)CC(=O)O)c(-c2ccc(F)cc2)c2ccccc21` (stereo unspecified) [FLUVASTATIN SODIUM], for which the pIC50 in experiment [1] was 8.40; in [2] it was 6.53; in experiment [6], 6.85.
Turning to `CC[C@H](C)C(=O)O[C@H]1C[C@H](O)C=C2C=C[C@H](C)[C@H](CC[C@@H](O)C[C@@H](O)CC(=O)[O-])[C@H]21.[Na+]` [PRAVASTATIN SODIUM], the pIC50 in [1] was 6.48; in [2], 6.64; in [4], 7.40; in experiment [6], 6.85. Further, the IC50 ratio in [3] stood at 1.6; in [5] it was 2.3.
